According to patent publication US7138122B2, “Therapeutic systems” (Enzacta R & D Limited, priority 1997, dated 2006):
“Also recorded” adds a separate entry of the source. Blank lines part the entries; values can stand above or below the molecule they belong to.

How the values were obtained:
[1] = test system: human T98G gliobastoma cells; assay: Cytotoxicity of CB 1954 on T98G glioblastoma cells with NQO2 co-substrates; conditions: 144 hr in presence of CB 1954
Method: Cells in exponential phase of growth were trypsinised, seeded in 96 well plates at a density of 5×10^4 cells per well (100 μl) and permitted to recover for 24 hours. Then 50 μl of medium was removed and replaced with 50 μl of fresh medium containing 200 μM NRH to give a final concentration of 100 μM. Serial dilutions of CB 1954 (8 of 3.66×) were performed in situ giving final concentrations of 1000–0.46 μM. Cells were then incubated with drug for 72 hours at 37° C. The plates were fixed and stained with sulforhodamine-B; the absorption at 590 nm read and results were expressed as percentage of control growth. The IC50 values were evaluated by interpolation.
The cells were treated as for V79 cells but were treated for 144 hr in presence of CB 1954.

wild-type V79 cells = assay: Uptake of NQO2 co-substrates into V79 cells (fluorimetry); format: in vitro ADME, Chinese hamster; conditions: for uptake / internalisation into cells: 1 mM co-substrate, 37° C.
Method: The uptake of various NQO2 co-substrates into V79 cells was determined by fluorimetry. V79 cells were seeded into T25 tissue culture flasks and allowed to grow to confluence (^−2×10^7 cells). The growth medium was removed and replaced with 10 mls of fresh medium containing 1 mM of co-substrate and incubated at 37° C. At various the medium was removed and the cell monolayer washed ×5 with 50 mL of ice cold PBS. The cells were removed by trypsinisation and pelleted by centrifugation. The cell pellet was resuspended in alkaline lysis buffer (KOH 0.5M; 36% W/v CsCl; in 50% aqueous ethanol) disrupted by agitation and the cell debris removed by centrifugation at 10,000 g. The concentration of co-substrate was determined by fluorimetry (excitation 360 nm, emission 450 nm, slits 5nm) by diluting 100μl of supernatant in 2.9ml of 100 mM sodium bicarbonate buffer pH 10. The fluorimeter was calibrated against the appropriate standard. All measurements were done in triplicate.

Rat DT-diaphorase = biological target: T1, Rat DT-diaphorase (Rattus norvegicus, UniProt P05982); assay: Use of co-substrates by rat DT diaphorase for reduction of CB1954; format: biochemical
T1 sequence (P05982 2-274 limits assumed): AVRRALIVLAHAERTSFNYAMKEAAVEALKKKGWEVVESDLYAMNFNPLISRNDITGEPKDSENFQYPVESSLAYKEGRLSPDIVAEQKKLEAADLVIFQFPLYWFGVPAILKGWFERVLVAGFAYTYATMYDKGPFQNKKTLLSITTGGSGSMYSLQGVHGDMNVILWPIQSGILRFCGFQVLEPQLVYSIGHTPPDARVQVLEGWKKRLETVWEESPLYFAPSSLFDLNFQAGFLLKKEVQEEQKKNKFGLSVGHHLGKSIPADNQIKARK

NQO2 [2] = biological target: T2, NQO2 (Homo sapiens, UniProt P16083); assay: Co-substrate activity with NQO2 for reduction of CB 1954 (HPLC); format: biochemical; set-up: restriction site were added to the 5′ and 3′-ends of the full-length NQO2 cDNA; made in house; host or cells: E. coli (expression vector pKK233-2, plasmid pKK-hNQO2); conditions: for Km: of NQO2 for the co-substrate, CB1954 as electron acceptor (100 μM); for kcat: of NQO2 with the co-substrate, CB1954 as electron acceptor; for ability to act as co-substrate for NQO2: reduction of CB 1954 by NQO2; for RELATIVE RATE OF REDUCTION: CB 1954 reduction by NQO2, co-substrate initial 500 μM, CB 1954 initial 100 μM
T2 sequence (P16083 1-231): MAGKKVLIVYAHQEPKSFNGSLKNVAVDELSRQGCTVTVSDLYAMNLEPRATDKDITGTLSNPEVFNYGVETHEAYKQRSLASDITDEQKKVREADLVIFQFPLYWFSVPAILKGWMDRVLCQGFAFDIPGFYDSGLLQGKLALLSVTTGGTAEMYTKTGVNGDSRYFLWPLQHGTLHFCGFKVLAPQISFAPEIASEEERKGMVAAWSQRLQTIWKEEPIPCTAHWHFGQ
Method: The effect of various co-substrates on CB 1954 was determined as above but NADH. NADPH or NMNH was substituted for the NRH and CB 1954 was used at a fixed concentration of 100 μM. The enzyme concentration was 5 μg/ml. The reduction of CB 1954 was monitored by measuring both the decrease in its corresponding peak area on the HPLC trace and the increase in the area of the peak corresponding to the reduction product 5-(aziridin-1-yl)-4-hydroxylamino-2-nitrobenzamide. The relative rates of reduction were determined at 10% reduction of CB1954 from a graph plotting CB 1954 reduction against time. The time axis was normalised to the equivalent of 10 μg/ml of NQO2.
The activity of various potential co-substrates was determined by HPLC analysis in the presence of CB1954 and NQO2. To determine the kinetic parameters NQO2 (1 μg/ml) was incubated with NRH (5000 μM) and CB1954 at different concentrations (0.1 to 2 mM) in sodium phosphate buffer (10MM, pH 7) at 37° C. At various times, aliquots (10 μl) were injected onto a Partisphere SCX (250×4.5 mm) HPLC column (Whatman Ltd) and eluted isocratically (1.5 ml/min) with 50 mM aqueous sodium phosphate containing 1% methanol. The eluate was continuously monitored for absorption at 320 nm. […] The reduction of CB1954 was monitored by quantifying the increase in the area of the peak corresponding to the reduction product 5-(aziridin-1-yl)-4-hydroxylamino-2-nitrobenzamide. All the assays were initiated by addition of the enzyme and performed in duplicate. The kinetic parameters were calculated by plotting the initial rate of reduction at each concentration of CB1954 against that concentration and fitting the data to the Michaelis-Menton equation using a computer programme (Fig P). Values were confirmed by transforming the data and fitting it to various linear forms of the equation by regression analysis.
The effect of various co-substrates on CB1954 reduction was determined as above but the co-substrate was substituted for the NRH and C1954 was used at a fixed concentration of 100 μM. The enzyme concentration was 1 or 5 μg/ml. The reduction of CB1954 was monitored by measuring both the decrease in its corresponding peak area on the HPLC trace and the increase in the area of the peak corresponding to the reduction product 5-(aziridin-1-yl)-4-hydroxylamino-2-nitrobenzamide. The relative rates of reduction were determined at 10% reduction of CB1954 from a graph plotting CB1954 reduction against time. The time axis was normalised to the equivalent of 10 μg/ml of NQO2. The kinetic parameters of NQO2 for the various co-substrates was determined as for CB1954 except that the initial concentration of CB1954 was constant at 100 μm whilst that of the co-substrate was varied from 0 to 2 mM. The enzyme concentration was 0.5 μg/ml.

E. coli nitroreductase = E. coli nitroreductase (Escherichia coli, UniProt P38489); assay: Use of co-substrates by E. coli nitroreductase for reduction of CB1954; format: biochemical
[3] = Effect on the body weight of normal mice (in vivo toxicity); conditions: intravenous (tail vein), 8 day period
Method: Mice (6 groups of 3) were injected intravenously (tail vein) with either compound 1 or 2 at the doses shown and the weight of the mice was monitored over an 8 day period. Control mice received vehicle (phosphate buffered saline) only.

NQO2 [4] = biological target: T2, NQO2; assay: Inhibition of NQO2 by flavones; format: biochemical; conditions: competitive with respect to NRH; read-out: K1 (competitive inhibitor with respect to NRH)
[5] = substrate: NC(=O)c1cc(N2CC2)c([N+](=O)[O-])cc1[N+](=O)[O-]; assay: Kinetic parameters of NQO2 with respect to CB 1954 (HPLC); format: biochemical, human; conditions: other: with respect to CB 1954; NRH as co-substrate; pH 7.0; 37.0 °C
Method: Recombinant human NQO2 was prepared in E. coli. A NcoI and a HindIII restriction site were added to the 5′ and 3′-ends of the full-length NQO2 cDNA, respectively, using a PCR method with primers and nucleotide sequences derived from the 5′ and 3′-ends of the cDNA. The PCR product was resolved over a 1% agarose gel and then extracted using the QiAquick Gel Extraction Kit (Qiagen Inc). The gel-purified PCR product was cloned into PCRII vector from the TA cloning kit (Invitrogen Co) and the correct sequence of the PCR product was checked by dideoxy sequencing. The resulting construct was religated into the E. coli expression vector, pKK233-2 (Pharmacia) through the engineered NcoI and HindIII restriction sites. The expression plasmid was designated pKK-hNQO2. […] The purified NQO2 preparation was analysed by SDS-PAGE electrophoresis. The activity of NQO2 in the presence of CB 1954, and various cofactors was determined by HPLC. […] The eluate was continuously monitored for absorption at 320 nm. […] The reduction of CB 1954 was monitored by quantifying the increase in the area of the peak corresponding to the reduction product 5-(aziridin-1-yl)-4-hydroxylamino-2-nitrobenzamide. […] The kinetic parameters were calculated by plotting the initial rate of reduction at each concentration of CB 1954 against that concentration and fitting the data to the Michales-Menton equation using a computer programme (FigP). […]

Chain of E. coli nitroreductase (P38489 whole entry): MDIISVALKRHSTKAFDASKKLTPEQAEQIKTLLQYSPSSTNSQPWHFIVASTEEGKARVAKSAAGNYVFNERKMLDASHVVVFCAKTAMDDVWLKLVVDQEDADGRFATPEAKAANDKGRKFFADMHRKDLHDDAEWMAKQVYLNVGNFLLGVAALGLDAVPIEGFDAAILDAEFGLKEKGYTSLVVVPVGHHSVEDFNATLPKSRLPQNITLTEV

Molecule: NC(=O)C1=CN(CCCS(=O)(=O)O)C=CC1 [Compound 1, 1-(3-sulfonatopropyl)-dihydronicotinamide]
increase of the cytotoxicity of CB 1954 by added co-substrate [1]: did not potentiate; also recorded: no potentialtion is observed
uptake / internalisation into cells (wild-type V79 cells): excluded from the cells; also recorded: do not expect it to enter cells and this is what is observed
uptake / internalisation into cells (wild-type V79 cells; listed as compound 1): excluded from cells; also recorded: not able to enter the cells
ability of rat DT diaphorase to use as co-substrate (Rat DT-diaphorase): able to use
Km (NQO2 [2]): 1080 ± 135 µM
kcat (NQO2 [2]): 25.5 s⁻¹
ability of E. coli nitroreductase to use as co-substrate (E. coli nitroreductase): not able to use either
intrinsic toxicity as judged by body weight loss [3]: no evidence of intrinsic toxicity

Molecule: NC(=O)CN1C=CCC(C(N)=O)=C1 [Compound 2, 1-(carboxamidomethyl)-dihydronicotinamide]
internalisation relative to NRH (wild-type V79 cells): about 10 % of NRH
uptake / internalisation into cells (wild-type V79 cells): poorly internalised
ability of rat DT diaphorase to use as co-substrate (Rat DT-diaphorase): able to use
Km (NQO2 [2]): 198 ± 19 µM
kcat (NQO2 [2]): 12.5 s⁻¹
ability of E. coli nitroreductase to use as co-substrate (E. coli nitroreductase): not able to use either
intrinsic toxicity as judged by body weight loss [3]: no evidence of intrinsic toxicity

Molecule: NC(=O)C1=CN(Cc2ccccc2)C=CC1 [Compound 8, 1-benzyl-dihydronicotinamide]
ability to act as co-substrate for NQO2 (NQO2 [2]): not cosubstrates
ability to act as co-substrate for NQO2 (NQO2 [2]; listed as compound 8): not co-substrates

Molecule: NC(=O)C1=CN(CCc2ccccc2)C=CC1 [Compound 11]
ability to act as co-substrate for NQO2 (NQO2 [2]): not cosubstrates; also recorded: poor co-substrate

Molecule: NC(=O)C1=CN([C@@H]2O[C@H](COP(=O)(O)OP(=O)(O)OC[C@H]3O[C@@H](n4cnc5c(N)ncnc54)[C@H](O)[C@@H]3O)[C@@H](O)[C@H]2O)C=CC1 [NADH]
ability of rat DT diaphorase to use as co-substrate (Rat DT-diaphorase): can use NADH as a co-substrate
RELATIVE RATE OF REDUCTION (NQO2 [2]): 1.0
ability to act as co-substrate for NQO2 (NQO2 [2]): not readily catalysed; also recorded: not cosubstrates; also recorded: poor co-substrates
ability of E. coli nitroreductase to use as co-substrate (E. coli nitroreductase): can use NADH as a co-substrate

Molecule: NC(=O)C1=CN([C@@H]2O[C@H](COP(=O)(O)OP(=O)(O)OC[C@H]3O[C@@H](n4cnc5c(N)ncnc54)[C@H](OP(=O)(O)O)[C@@H]3O)[C@@H](O)[C@H]2O)C=CC1 [NADPH]
RELATIVE RATE OF REDUCTION (NQO2 [2]): 1.24
ability to act as co-substrate for NQO2 (NQO2 [2]): not readily catalysed; also recorded: not cosubstrates; also recorded: poor co-substrates

Molecule: NC(=O)C1=CN([C@@H]2O[C@H](COP(=O)(O)O)[C@@H](O)[C@H]2O)C=CC1 [NMNH]
RELATIVE RATE OF REDUCTION (NQO2 [2]): 5.6

Ki (NQO2 [4]): 0.027 µM
Molecule: O=c1c(O)c(-c2ccc(O)c(O)c2)oc2cc(O)cc(O)c12 [Quercetin, 3,5,7,3′,4′-pentahydroxyflavone]

Molecule: O=C(O)C1=CN(C2O[C@H](COP(=O)(O)O)[C@@H](O)[C@H]2O)C=CC1 (some centres unmarked) [nicotinic acid mononucleotide (reduced)]
ability to act as co-substrate for NQO2 (NQO2 [2]): not co-substrates

B1: Recombinant human NQO2 (Homo sapiens) (protein)
chain: T2 sequence (P16083 1-231)
notes: restriction site were added to the 5′ and 3′-ends of the full-length NQO2 cDNA; made in house; host or cells: E. coli (expression vector pKK233-2, plasmid pKK-hNQO2)
Km [5]: 263 ± 13 µM
kcat [5]: 6.01 s⁻¹
